Broadly, the melting point is the temperature of the solid-liquid transition.

pIC50: −log10 of the molar value. Some results are limits rather than exact numbers.

The target of data set [1] is baculovirus-expressed ALK (Homo sapiens, UniProt Q9UM73). Nature of the data set: ALK kinase inhibition, TRF/ELISA. To be noted: read-out: ALK Potency. Type of data set: biochemical. Put shortly: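 Eu-PT66 anti-phosphotyrosine TRF read-out measured phosphorylation of plate-bound GST-PLC-γ (coated at 10 μg/mL). The phosphorylation was driven by 30 ng/mL ALK for 15 minutes at 37° C.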
On the technique in general: An ELISA detects its analyte on a solid surface through an enzyme-linked reagent.

Data set [2] concerns the target baculovirus-expressed JAK2 kinase (Homo sapiens, UniProt O60674). Nature of the data set: biochemical. The note with it: 0.2 μM ATP; read-out: JAK2 Potency. Put shortly: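 IC50 derived by variable-slope sigmoidal fit of percent inhibition against log compound concentration. Baculovirus-expressed JAK2 (15 ng/mL) phosphorylated a plate-bound biotinylated 15-mer peptide for 20 min at room temperature; detection by time-resolved fluorescence.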

baculovirus-expressed ALK, sequence (Q9UM73 19-1620): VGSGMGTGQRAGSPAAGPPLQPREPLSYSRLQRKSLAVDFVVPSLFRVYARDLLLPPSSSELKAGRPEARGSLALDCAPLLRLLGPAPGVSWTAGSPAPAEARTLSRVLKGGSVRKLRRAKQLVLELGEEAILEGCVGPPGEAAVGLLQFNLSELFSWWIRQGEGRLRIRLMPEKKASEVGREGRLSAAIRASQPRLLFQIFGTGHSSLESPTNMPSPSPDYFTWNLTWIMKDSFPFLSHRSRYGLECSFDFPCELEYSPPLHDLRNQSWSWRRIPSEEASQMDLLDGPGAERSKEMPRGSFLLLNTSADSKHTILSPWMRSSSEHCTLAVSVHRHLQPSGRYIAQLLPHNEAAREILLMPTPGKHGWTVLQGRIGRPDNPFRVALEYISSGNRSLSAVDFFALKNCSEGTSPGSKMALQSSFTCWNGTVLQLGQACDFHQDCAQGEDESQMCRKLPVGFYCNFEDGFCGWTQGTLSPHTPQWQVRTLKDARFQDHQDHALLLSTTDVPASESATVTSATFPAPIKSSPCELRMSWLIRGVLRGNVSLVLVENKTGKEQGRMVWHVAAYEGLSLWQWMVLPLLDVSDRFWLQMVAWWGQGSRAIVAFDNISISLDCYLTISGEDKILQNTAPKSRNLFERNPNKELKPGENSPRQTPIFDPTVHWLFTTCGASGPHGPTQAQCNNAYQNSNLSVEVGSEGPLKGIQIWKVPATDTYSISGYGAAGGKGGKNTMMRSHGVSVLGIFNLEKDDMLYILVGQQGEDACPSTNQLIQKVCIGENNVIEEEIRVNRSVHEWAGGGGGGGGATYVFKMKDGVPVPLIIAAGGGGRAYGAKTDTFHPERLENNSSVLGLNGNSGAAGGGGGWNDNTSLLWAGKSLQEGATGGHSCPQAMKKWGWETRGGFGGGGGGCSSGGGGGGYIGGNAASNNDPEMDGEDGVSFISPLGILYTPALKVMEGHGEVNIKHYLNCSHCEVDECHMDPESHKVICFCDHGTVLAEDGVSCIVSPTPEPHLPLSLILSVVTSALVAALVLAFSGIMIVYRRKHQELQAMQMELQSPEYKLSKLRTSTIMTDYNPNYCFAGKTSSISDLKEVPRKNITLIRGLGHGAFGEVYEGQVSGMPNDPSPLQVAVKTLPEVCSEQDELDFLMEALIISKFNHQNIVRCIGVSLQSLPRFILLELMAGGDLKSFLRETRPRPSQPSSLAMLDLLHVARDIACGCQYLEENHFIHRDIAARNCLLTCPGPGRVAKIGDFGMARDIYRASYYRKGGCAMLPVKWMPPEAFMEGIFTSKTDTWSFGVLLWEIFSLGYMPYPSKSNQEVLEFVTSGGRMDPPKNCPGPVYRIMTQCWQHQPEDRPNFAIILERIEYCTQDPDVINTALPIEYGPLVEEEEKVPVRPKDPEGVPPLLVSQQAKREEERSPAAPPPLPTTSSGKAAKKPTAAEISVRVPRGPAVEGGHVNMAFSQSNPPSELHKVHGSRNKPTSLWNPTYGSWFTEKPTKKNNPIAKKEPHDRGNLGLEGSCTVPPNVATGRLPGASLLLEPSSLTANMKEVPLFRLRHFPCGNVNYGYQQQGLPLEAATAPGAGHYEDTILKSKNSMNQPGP
baculovirus-expressed JAK2 kinase, sequence (O60674 whole entry): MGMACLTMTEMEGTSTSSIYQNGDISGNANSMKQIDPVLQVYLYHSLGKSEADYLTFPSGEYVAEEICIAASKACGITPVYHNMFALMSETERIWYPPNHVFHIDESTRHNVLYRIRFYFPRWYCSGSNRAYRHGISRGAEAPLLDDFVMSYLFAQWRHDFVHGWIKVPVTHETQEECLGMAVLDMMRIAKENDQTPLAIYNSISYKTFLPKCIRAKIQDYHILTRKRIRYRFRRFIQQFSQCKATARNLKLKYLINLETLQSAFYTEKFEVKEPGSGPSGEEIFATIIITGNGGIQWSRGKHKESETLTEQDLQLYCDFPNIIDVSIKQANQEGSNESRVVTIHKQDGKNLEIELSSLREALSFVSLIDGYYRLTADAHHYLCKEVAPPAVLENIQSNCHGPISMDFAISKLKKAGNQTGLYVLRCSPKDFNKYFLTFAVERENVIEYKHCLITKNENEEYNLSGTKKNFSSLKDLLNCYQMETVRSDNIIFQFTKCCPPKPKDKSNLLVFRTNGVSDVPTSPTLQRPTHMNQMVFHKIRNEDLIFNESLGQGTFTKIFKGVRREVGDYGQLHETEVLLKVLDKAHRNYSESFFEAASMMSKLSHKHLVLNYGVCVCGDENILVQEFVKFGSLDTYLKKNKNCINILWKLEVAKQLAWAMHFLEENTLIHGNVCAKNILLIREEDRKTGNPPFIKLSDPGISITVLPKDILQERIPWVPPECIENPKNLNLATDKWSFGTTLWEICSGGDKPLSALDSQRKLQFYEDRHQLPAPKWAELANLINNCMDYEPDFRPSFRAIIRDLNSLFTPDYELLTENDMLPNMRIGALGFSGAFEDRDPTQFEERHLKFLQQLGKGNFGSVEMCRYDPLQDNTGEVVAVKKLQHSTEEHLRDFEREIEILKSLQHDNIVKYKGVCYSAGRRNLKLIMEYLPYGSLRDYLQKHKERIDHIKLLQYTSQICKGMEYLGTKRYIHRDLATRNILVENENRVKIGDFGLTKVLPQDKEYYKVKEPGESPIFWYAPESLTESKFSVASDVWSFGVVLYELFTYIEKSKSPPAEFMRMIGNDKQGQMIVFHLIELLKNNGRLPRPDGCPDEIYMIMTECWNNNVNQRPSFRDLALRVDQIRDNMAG

`Cc1ccc(-c2nc3c(N[C@H]4[C@@H](C(N)=O)[C@@H]5C=C[C@H]4C5)c(Br)cnc3[nH]2)o1` [Compound CX, (1S,2S,3R,4R)-3-[6-Bromo-2-(5-methyl-furan-2-yl)-3H-imidazo[4,5-b]pyridin-7-ylamino]-bicyclo[2.2.1]hept-5-ene-2-carboxylic acid amide] gave a melting point of 200 to 201 °C. Also, the pIC50 in data set [1] was 6.00 to 7.00. The pIC50 in data set [2] is greater than 7.00.
`COc1cc(N2CCN(C)CC2)ccc1-c1nc2c(N[C@H]3[C@@H](C(N)=O)[C@@H]4C=C[C@H]3C4)ccnc2[nH]1` [Compound XCV, (1S,2S,3R,4R)-3-{2-[2-Methoxy-4-(4-methyl-piperazin-1-yl)-phenyl]-3H-imidazo[4,5-b]pyridin-7-ylamino}-bicyclo[2.2.1]hept-5-ene-2-carboxylic acid amide]: the melting point was 185 to 195 °C. The pIC50 in data set [1] is 5.00 to 6.00. The pIC50 in data set [2] is 5.00 to 6.00.
Regarding `NC(=O)[C@@H]1[C@H](Nc2c(Cl)cnc3[nH]c(-c4ccc(C(=O)NC(CO)C(=O)O)cc4)nc23)[C@H]2C=C[C@@H]1C2` (stereo partly drawn) [Compound CCXXX, 2-(4-(7-((1R,2R,3S,4S)-3-carbamoylbicyclo(2.2.1)hept-5-en-2-ylamino)-6-chloro-3H-imidazo[4,5-b]pyridine-2-yl)benzamido)-3-hydroxypropanoic acid], the melting point is 186 °C. Further, the pIC50 in data set [1] is 6.00 to 7.00. Moreover, in data set [2], the pIC50 is greater than 7.00.
`COc1cc(N(C)C)ccc1-c1nc2c(N[C@H]3[C@@H](C(N)=O)[C@@H]4C=C[C@H]3C4)ccnc2[nH]1` [Compound XCIII, (1S,2S,3R,4R)-3-[2-(4-Dimethylamino-2-methoxy-phenyl)-3H-imidazo[4,5-b]pyridin-7-ylamino]-bicyclo[2.2.1]hept-5-ene-2-carboxylic acid amide]: the melting point fell in the range of 185 to 190 °C. Also, the pIC50 in data set [1] is less than 5.00. In data set [2], the pIC50 is less than 5.00.
As for `NC(=O)[C@@H]1[C@H](Nc2c(Br)cnc3[nH]c(-c4ccccc4-n4cccn4)nc23)[C@H]2C=C[C@@H]1C2` [Compound CIV, (1S,2S,3R,4R)-3-[6-Bromo-2-(2-pyrazol-1-yl-phenyl)-3H-imidazo[4,5-b]pyridin-7-ylamino]-bicyclo[2.2.1]hept-5-ene-2-carboxylic acid amide], the melting point stood at 120 °C. Besides, the pIC50 in data set [1] was 5.00 to 6.00. In data set [2], the pIC50 is 6.00 to 7.00.
In turn, `CN(C)c1ccc(-c2nc3c(N[C@H]4[C@@H](C(N)=O)[C@@H]5C=C[C@H]4C5)c(Br)cnc3[nH]2)cc1` [Compound LXXVI, (1S,2S,3R,4R)-3-[6-Bromo-2-(4-dimethylamino-phenyl)-3H-imidazo[4,5-b]pyridin-7-ylamino]-bicyclo[2.2.1]hept-5-ene-2-carboxylic acid amide] registered a melting point of 264 to 265 °C. For the same compound, the pIC50 in data set [1] was greater than 7.00. In data set [2], the pIC50 was greater than 7.00.
Consider `COc1c(CN2CCOCC2)cccc1-c1nc2c(N[C@H]3[C@@H](C(N)=O)[C@@H]4C=C[C@H]3C4)c(Cl)cnc2[nH]1` [Compound LIII, (1S,2S,3R,4R)-3-[6-Chloro-2-(2-methoxy-3-morpholin-4-ylmethyl-phenyl)-3H-imidazo[4,5-b]pyridine-7-ylamino]-bicyclo[2.2.1]hept-5-ene-2-carboxylic acid amide], for which the melting point lay in the range of 133 to 137 °C. The pIC50 in data set [1] is greater than 7.00. In data set [2], the pIC50 was greater than 7.00.
Consider `COc1cc(N(C)C)ccc1-c1nc2c(N[C@H]3[C@@H](C(N)=O)[C@@H]4C=C[C@H]3C4)c(Br)cnc2[nH]1` [Compound LXXXIV, (1S,2S,3R,4R)-3-[6-Bromo-2-(4-dimethylamino-2-methoxy-phenyl)-3H-imidazo[4,5-b]pyridin-7-ylamino]-bicyclo[2.2.1]hept-5-ene-2-carboxylic acid amide], for which the melting point fell in the range of 218 to 220 °C. The pIC50 in data set [1] was greater than 7.00. The pIC50 in data set [2] was greater than 7.00.
`COc1cc(N2CCC(N3CCOCC3)CC2)ccc1-c1nc2c(N[C@H]3[C@@H](C(N)=O)[C@@H]4C=C[C@H]3C4)c(Br)cnc2[nH]1` [Compound XCVII, (1S,2S,3R,4R)-3-{6-Bromo-2-[2-methoxy-4-(4-morpholin-4-yl-piperidin-1-yl)-phenyl]-3H-imidazo[4,5-b]pyridin-7-ylamino}-bicyclo[2.2.1]hept-5-ene-2-carboxylic acid amide] displayed a melting point of 185 to 195 °C. For the same compound, the pIC50 in data set [1] is greater than 7.00. In addition, the pIC50 in data set [2] was greater than 7.00.
Compound `COc1ccc(-c2nc3c(N[C@H]4[C@@H](C(N)=O)[C@@H]5C=C[C@H]4C5)c(Cl)cnc3[nH]2)c(C2CCN(C[C@@H](C)O)CC2)c1` [Compound XXXI] showed a melting point of 186 to 187 °C. Besides, in data set [1], the pIC50 was 5.00 to 6.00. In addition, in data set [2], the pIC50 was 6.00 to 7.00.
The corresponding values for `COc1cc(N2CCN(C)CC2)ccc1-c1nc2c(N[C@H]3[C@@H](C(N)=O)[C@@H]4C=C[C@H]3C4)c(Br)cnc2[nH]1` [Compound XCVI, (1S,2S,3R,4R)-3-{6-Bromo-2-[2-methoxy-4-(4-methyl-piperazin-1-yl)-phenyl]-3H-imidazo[4,5-b]pyridin-7-ylamino}-bicyclo[2.2.1]hept-5-ene-2-carboxylic acid amide] are 185 to 195 °C, greater than 7.00 and greater than 7.00.
The corresponding values for `NC(=O)[C@@H]1[C@H](Nc2c(Br)cnc3[nH]c(-c4cncnc4)nc23)[C@H]2C=C[C@@H]1C2` [Compound CVII, (1S,2S,3R,4R)-3-(6-Bromo-2-pyrimidin-5-yl-3H-imidazo[4,5-b]pyridin-7-ylamino)-bicyclo[2.2.1]hept-5-ene-2-carboxylic acid amide] are greater than 300 °C, 6.00 to 7.00 and greater than 7.00.
The compound `NC(=O)[C@@H]1[C@H](Nc2c(Br)cnc3[nH]c(-c4cccc(N5CCOCC5)c4)nc23)[C@H]2C=C[C@@H]1C2` [Compound LXXXIII, (1S,2S,3R,4R)-3-[6-Bromo-2-(3-morpholin-4-yl-phenyl)-3H-imidazo[4,5-b]pyridin-7-ylamino]-bicyclo[2.2.1]hept-5-ene-2-carboxylic acid amide] came in with a melting point of 232 to 234 °C. Also, the pIC50 in data set [1] is greater than 7.00. Further, in data set [2], the pIC50 is greater than 7.00.
`CN(C)c1cccc(-c2nc3c(N[C@H]4[C@@H](C(N)=O)[C@@H]5C=C[C@H]4C5)ccnc3[nH]2)c1` [Compound LXXXVII, (1S,2S,3R,4R)-3-[2-(3-Dimethylamino-phenyl)-3H-imidazo[4,5-b]pyridin-7-ylamino]-bicyclo[2.2.1]hept-5-ene-2-carboxylic acid amide] had a melting point of 200 to 204 °C. Further, the pIC50 in data set [1] is less than 5.00. In data set [2], the pIC50 is 5.00 to 6.00.
The corresponding values for `NC(=O)[C@@H]1[C@H](Nc2c(Br)cnc3[nH]c(-c4cccnc4N4CCCC4)nc23)[C@H]2C=C[C@@H]1C2` [Compound CV, (1S,2S,3R,4R)-3-[6-Bromo-2-(2-pyrrolidin-1-yl-pyridin-3-yl)-3H-imidazo[4,5-b]pyridin-7-ylamino]-bicyclo[2.2.1]hept-5-ene-2-carboxylic acid amide] are 190 °C, 5.00 to 6.00 and 5.00 to 6.00.

Values taken from US9238656B2, “Imidazo[4,5-b]pyridine derivatives as ALK and JAK modulators for the treatment of proliferative disorders” (priority 2012, dated 2016).
